In patent publication EP0326329B1, “Quinazoline derivatives useful as insecticides” (Dow AgroSciences LLC, priority 1988, dated 1989):

What was measured:
Assay type in all cases: in vivo
[1] = tested on: Erysiphe graminis tritici (powdery mildew); test: Greenhouse Test 1, foliar spray fungicide screen (POWD MDEW), host wheat; details: disease control rating, 400 ppm (+++ at 100 ppm)
[2] = tested on: Pyricularia oryzae (rice blast); details: disease control rating, foliar spray, host rice; 400 ppm (+++ at 100 ppm)
[3] = tested on: Puccinia recondita tritici (leaf rust); test: Greenhouse Test 1, foliar spray fungicide screen (LEAF RUST), host wheat; details: disease control rating, 400 ppm (+++ at 100 ppm)
[4] = tested on: Botrytis cinerea (gray mold); test: Greenhouse Test 1, foliar spray fungicide screen (GRAY MOLD), host grape berries; details: disease control rating, 400 ppm (+++ at 100 ppm)
[5] = tested on: Pseudoperonospora cubensis (downy mildew); test: Greenhouse Test 1, foliar spray fungicide screen (DOWN MDEW), host squash; details: disease control rating, 400 ppm (+++ at 100 ppm)
[6] = tested on: Cercospora beticola (leaf spot); test: Greenhouse Test 1, foliar spray fungicide screen (LEAF SPOT), host sugar beet; details: disease control rating, 400 ppm (+++ at 100 ppm)
[7] = tested on: Venturia inaequalis (apple scab); test: Greenhouse Test 1, foliar spray fungicide screen (APPL SCAB), host apple seedling; details: disease control rating, 400 ppm (+++ at 100 ppm)
[8] = tested on: Septoria tritici (leaf blotch); test: Greenhouse Test 1, foliar spray fungicide screen (LEAF BLOT), host wheat; details: disease control rating, 400 ppm (+++ at 100 ppm)
[9] = tested on: Southern corn rootworm (Diabrotica undecimpuctata howardi Barber); test: Mite/insect screen, soil treatment (CRW); details: Diabrotica, percent mortality, soil treatment, read-out: CRW RESULTS %; for mortality at 12 ppm: CRW rate 12.00 ppm; for mortality at 24 ppm: CRW rate 24.00 ppm
Outline: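 Five 2–3 instar larvae were placed on dry sandy soil with a presoaked corn seed after the soil had received 1 mL of compound solution and dried 6–12 h; cups were kept capped at 23°C. Mortality (%) and phytotoxicity were read after standard exposure. Formulation: acetone/alcohol with emulsifiers, water-diluted.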

[10] = tested on: southern armyworm (Spodopetra eridania Cramer); test: Mite/insect screen, sprayed squash leaves (SAW); details: Spodoptera eridania, percent mortality, read-out: SAW RESULTS %; for mortality at 200 ppm: spray rate 200 ppm; for mortality at 400 ppm: spray rate 400 ppm
Outline: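 Acetone/alcohol (50:50) + emulsifier blends 23 g/L and 13 g/L; water dilution to test concs. Spray both leaf surfaces to runoff, dry 1 h. For armyworm, 2 excised uninfested leaves into Petri dish with larvae. Readout: % mortality, phytotoxicity.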

[11] = tested on: Twospotted spider mites (Tetranychus urticae Koch); test: Mite/insect screen, sprayed squash cotyledons (SM); details: Tetranychus urticae, percent mortality, read-out: SM RESULTS %; for mortality at 200 ppm: spray rate 200 ppm; for mortality at 400 ppm: spray rate 400 ppm
Outline: (§1)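 Mortality and phytotoxicity read after standard exposure periods on sprayed squash: cotyledons for melon aphids and twospotted spider mites, excised leaves placed with southern armyworm larvae. Spray solutions were water dilutions of acetone/alcohol stocks containing TOXIMUL R and S emulsifiers, applied to runoff at 10 psi and air-dried one hour.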

[12] = tested on: melon aphids (Aphis gossypii Glover); test: Mite/insect screen, sprayed squash cotyledons (MA); details: Aphis gossypii, percent mortality, read-out: MA RESULTS %; for mortality at 200 ppm: spray rate 200 ppm; for mortality at 400 ppm: spray rate 400 ppm
Outline: as §1

[13] = tested on: Dawson-hop aphid; test: Mite and insect field trials; details: plant: hops
Procedure: (§2) 4-[2-[4-(t-butyl)phenyl]ethoxy]quinazoline and 4-[2-(1,1'-biphenyl)-4 biphenyl)-4-ylethoxy]quinazoline were evaluated against a variety of mite and insect species in field trials.

[14] = tested on: European red mite; test: Mite and insect field trials; details: plant: apples
Procedure: as §2

[15] = tested on: apple aphid; test: Mite and insect field trials; details: plant: apples
Procedure: as §2

[16] = tested on: apple rust mite; test: Mite and insect field trials; details: plant: apples
Procedure: as §2

[17] = tested on: bean aphid; test: Mite and insect field trials; details: plant: bean, faba broad
Procedure: as §2

[18] = tested on: black citrus aphid; test: Mite and insect field trials; details: plant: lemon
Procedure: as §2

[19] = tested on: cereal aphid; test: Mite and insect field trials; details: plant: barley
Procedure: as §2

[20] = tested on: cotton aphid; test: Mite and insect field trials; details: plant: cotton
Procedure: as §2

[21] = tested on: glasshouse whitefly; test: Mite and insect field trials; details: tested on tomato
Procedure: as §2

[22] = tested on: grape leafhopper; test: Mite and insect field trials; details: plant: grape (European)
Procedure: as §2

[23] = tested on: grape thrips; test: Mite and insect field trials; details: plant: grape (European)
Procedure: as §2

[24] = tested on: green cloverworm; test: Mite and insect field trials; details: plant: alfalfa (Lucerne)
Procedure: as §2

[25] = tested on: green peach aphid; test: Mite and insect field trials
Procedure: as §2

[26] = tested on: greenhouse thrips; test: Mite and insect field trials; details: plant: azaleas
Procedure: as §2

[27] = tested on: pea aphid; test: Mite and insect field trials
Procedure: as §2

[28] = tested on: potato aphid; test: Mite and insect field trials; details: plant: turnip
Procedure: as §2

[29] = tested on: potato leafhopper; test: Mite and insect field trials; details: plant: alfalfa (Lucerne)
Procedure: as §2

[30] = tested on: rosy apple aphid; test: Mite and insect field trials; details: plant: apples
Procedure: as §2

[31] = tested on: tarnished plant bug; test: Mite and insect field trials; details: plant: alfalfa (Lucerne)
Procedure: as §2

[32] = tested on: thrips; test: Mite and insect field trials; details: plant: privet
Procedure: as §2

[33] = tested on: twospotted spider mite; test: Mite and insect field trials
Procedure: as §2

[34] = tested on: wheat aphid; test: Mite and insect field trials; details: plant: wheat
Procedure: as §2

[35] = tested on: white apple leafhopper; test: Mite and insect field trials; details: plant: apples
Procedure: as §2

[36] = tested on: yellow hickory aphid; test: Mite and insect field trials; details: plant: pecan nut
Procedure: as §2

[37] = tested on: Plasmopara viticola; test: Fungicide field tests; details: crop: grape
From the text: Selected compounds were field tested on various crops against a variety of pathogens. […]

[38] = tested on: Phytophthora infestans; details: crop: potato

## c1ccc(-c2ccc(CCOc3ncnc4ccccc34)cc2)cc1 [Example 85, 4-[2-(1,1'-biphenyl)-4-ylethoxy]quinazoline]
[1]
  POWD MDEW: ++ (++ = 90-100% control at 400 ppm)
[2]
  RICE BLAST: + (+ = 20-89% control at 400 ppm)
[3]
  LEAF RUST: +++ (+++ = 90-100% control at 100 ppm)
[4]
  GRAY MOLD: - (- = 0-19% control at 400 ppm)
[5]
  DOWN MDEW: +++ (+++ = 90-100% control at 100 ppm)
[6]
  LEAF SPOT: - (- = 0-19% control at 400 ppm)
[7]
  APPL SCAB: - (- = 0-19% control at 400 ppm)
[8]
  LEAF BLOT: +++ (+++ = 90-100% control at 100 ppm)
[9]
  mortality at 12 ppm: 0%
  mortality at 24 ppm: 0%
[10]
  mortality at 200 ppm: 10%
  mortality at 400 ppm: 80%
[11]
  mortality at 200 ppm: 100%
  mortality at 400 ppm: 100%
[12]
  mortality at 200 ppm: 100%
  mortality at 400 ppm: 100%
[13]
  mite or insect species against which they showed activity in field trials: Dawson-hop aphid
[14]
  mite or insect species against which they showed activity in field trials: European red mite
[15]
  mite or insect species against which they showed activity in field trials: apple aphid
[16]
  mite or insect species against which they showed activity in field trials: apple rust mite
[17]
  mite or insect species against which they showed activity in field trials: bean aphid
[18]
  mite or insect species against which they showed activity in field trials: black citrus aphid
[19]
  mite or insect species against which they showed activity in field trials: cereal aphid
[20]
  mite or insect species against which they showed activity in field trials: cotton aphid
[21]
  activity against glasshouse whitefly in field trials: showing activity
[22]
  mite or insect species against which they showed activity in field trials: grape leafhopper
[23]
  mite or insect species against which they showed activity in field trials: grape thrips
[24]
  mite or insect species against which they showed activity in field trials: green cloverworm
[25]; plant: apples
  mite or insect species against which they showed activity in field trials: green peach aphid
[25]; plant: sugar beet
  mite or insect species against which they showed activity in field trials: green peach aphid
[26]
  mite or insect species against which they showed activity in field trials: greenhouse thrips
[27]; plant: alfalfa (Lucerne)
  mite or insect species against which they showed activity in field trials: pea aphid
[27]; plant: pea, garden (English)
  mite or insect species against which they showed activity in field trials: pea aphid
[28]
  mite or insect species against which they showed activity in field trials: potato aphid
[29]
  mite or insect species against which they showed activity in field trials: potato leafhopper
[30]
  mite or insect species against which they showed activity in field trials: rosy apple aphid
[31]
  mite or insect species against which they showed activity in field trials: tarnished plant bug
[32]
  mite or insect species against which they showed activity in field trials: thrips
[33]; plant: azaleas
  mite or insect species against which they showed activity in field trials: twospotted spider mite
[33]; plant: broccoli
  mite or insect species against which they showed activity in field trials: twospotted spider mite
[33]; plant: plum (Japanese)
  mite or insect species against which they showed activity in field trials: twospotted spider mite
[34]
  mite or insect species against which they showed activity in field trials: wheat aphid
[35]
  mite or insect species against which they showed activity in field trials: white apple leafhopper
[36]
  mite or insect species against which they showed activity in field trials: yellow hickory aphid

## Clc1ccc(CCOc2ncnc3ccccc23)cc1 [Example 5, 4-[2-(4-chlorophenyl)ethoxy]quinazoline]
[1]
  POWD MDEW: +++ (+++ = 90-100% control at 100 ppm)
[2]
  RICE BLAST: +++ (+++ = 90-100% control at 100 ppm)
[3]
  LEAF RUST: +++ (+++ = 90-100% control at 100 ppm)
[4]
  GRAY MOLD: - (- = 0-19% control at 400 ppm)
[5]
  DOWN MDEW: + (+ = 20-89% control at 400 ppm)
[6]
  LEAF SPOT: +++ (+++ = 90-100% control at 100 ppm)
[7]
  APPL SCAB: +++ (+++ = 90-100% control at 100 ppm)
[8]
  LEAF BLOT: ++ (++ = 90-100% control at 400 ppm)
[9]
  mortality at 12 ppm: 0%
  mortality at 24 ppm: 0%
[10]
  mortality at 200 ppm: 20%
  mortality at 400 ppm: 0%
[11]
  mortality at 200 ppm: 100%
  mortality at 400 ppm: 50%
[12]
  mortality at 200 ppm: 100%
  mortality at 400 ppm: 100%
[37]
  pathogen against which compound demonstrated activity in field tests: Plasmopara viticola
[38]
  pathogen against which compound demonstrated activity in field tests: Phytophthora infestans

## Fc1ccc(CCOc2ncnc3ccccc23)cc1 [Example 84, 4-[2-(4-fluorophenyl)ethoxy]quinazoline]
[1]
  POWD MDEW: ++ (++ = 90-100% control at 400 ppm)
[2]
  RICE BLAST: ++ (++ = 90-100% control at 400 ppm)
[3]
  LEAF RUST: +++ (+++ = 90-100% control at 100 ppm)
[4]
  GRAY MOLD: - (- = 0-19% control at 400 ppm)
[5]
  DOWN MDEW: ++ (++ = 90-100% control at 400 ppm)
[6]
  LEAF SPOT: - (- = 0-19% control at 400 ppm)
[7]
  APPL SCAB: ++ (++ = 90-100% control at 400 ppm)
[8]
  LEAF BLOT: + (+ = 20-89% control at 400 ppm)
[9]
  mortality at 12 ppm: 0%
  mortality at 24 ppm: 40%
[10]
  mortality at 200 ppm: 0%
  mortality at 400 ppm: 0%
[11]
  mortality at 200 ppm: 0%
  mortality at 400 ppm: 0%
[12]
  mortality at 200 ppm: 0%
  mortality at 400 ppm: 0%

## c1ccc(-c2ccc(CCNc3ncnc4ccccc34)cc2)cc1 [Example 106, N-[2-(1,1'-biphenyl)-4-ylethyl]-4-quinazolinamine]
[1]
  POWD MDEW: +++ (+++ = 90-100% control at 100 ppm)
[2]
  RICE BLAST: +++ (+++ = 90-100% control at 100 ppm)
[3]
  LEAF RUST: +++ (+++ = 90-100% control at 100 ppm)
[4]
  GRAY MOLD: - (- = 0-19% control at 400 ppm)
[5]
  DOWN MDEW: +++ (+++ = 90-100% control at 100 ppm)
[6]
  LEAF SPOT: + (+ = 20-89% control at 400 ppm)
[7]
  APPL SCAB: +++ (+++ = 90-100% control at 100 ppm)
[8]
  LEAF BLOT: +++ (+++ = 90-100% control at 100 ppm)
[9]
  mortality at 12 ppm: 0%
  mortality at 24 ppm: 0%
[10]
  mortality at 200 ppm: 90%
  mortality at 400 ppm: 80%
[11]
  mortality at 200 ppm: 100%
  mortality at 400 ppm: 80%
[12]
  mortality at 200 ppm: 0%
  mortality at 400 ppm: 80%
